# Entries after “also recorded” stand apart in the source; their conditions may differ.
# Tests used:
# Format in all cases: cell-based
# TMEM16F = molecular target: T1, TMEM16F (Homo sapiens, UniProt Q4KMQ2); test: Whole cell currents in HEK293 cells expressing TMEM16F (patch clamp); details: overexpressed TMEM16F; niclosamide 1 μM
# T1 construct: expressed in transfected cells; host or cells: HEK293 cells
# T1 sequence (Q4KMQ2 1-910): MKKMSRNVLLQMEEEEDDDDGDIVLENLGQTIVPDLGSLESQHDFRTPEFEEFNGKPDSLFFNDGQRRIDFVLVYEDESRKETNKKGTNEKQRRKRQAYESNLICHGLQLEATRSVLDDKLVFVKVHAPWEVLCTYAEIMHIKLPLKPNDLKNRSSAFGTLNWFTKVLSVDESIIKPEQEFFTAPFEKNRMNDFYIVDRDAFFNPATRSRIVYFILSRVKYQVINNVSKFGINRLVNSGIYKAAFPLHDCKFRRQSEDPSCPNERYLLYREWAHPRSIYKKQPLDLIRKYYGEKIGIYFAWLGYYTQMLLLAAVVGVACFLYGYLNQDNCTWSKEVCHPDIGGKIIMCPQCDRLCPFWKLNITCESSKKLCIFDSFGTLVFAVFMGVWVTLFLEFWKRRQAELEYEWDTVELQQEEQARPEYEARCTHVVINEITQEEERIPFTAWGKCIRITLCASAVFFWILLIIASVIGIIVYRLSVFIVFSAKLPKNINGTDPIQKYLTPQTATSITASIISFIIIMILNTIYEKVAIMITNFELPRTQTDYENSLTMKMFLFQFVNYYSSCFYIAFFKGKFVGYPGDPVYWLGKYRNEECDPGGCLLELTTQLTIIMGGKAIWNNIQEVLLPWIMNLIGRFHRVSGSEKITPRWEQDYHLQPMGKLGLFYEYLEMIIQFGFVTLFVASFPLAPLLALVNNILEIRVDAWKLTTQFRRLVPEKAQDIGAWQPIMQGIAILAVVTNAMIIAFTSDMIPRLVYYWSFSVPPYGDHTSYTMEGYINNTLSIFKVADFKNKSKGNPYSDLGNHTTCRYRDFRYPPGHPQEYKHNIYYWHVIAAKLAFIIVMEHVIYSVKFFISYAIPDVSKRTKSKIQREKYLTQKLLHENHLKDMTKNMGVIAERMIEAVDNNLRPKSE
# Description: (§1) FIG. 14: The TMEM16-inhibitor niflumic acid attenuates inflammatory airway disease. • A,B) OVA-sensitization induced pronounced goblet cell metaplasia as indicated by alcian blue positivity. Exposure to carbachol (CCH, 25 mg/ml, nebulizer) induced release of mucus and airway […]. Bars indicate […]. […] Mean±SEM; *significant inhibition by NFA (paired ttest). # significant difference when compared to OVA (unpaired t-test). (n) number of airways analysed or number of cells examined.
# (§2) FIG. 15: Inhibition of TMEM16A and TMEM16F by niclosamide. • A) TMEM16A whole cell currents in overexpressing HEK293 cells. […]
# (§3) OVA-induced allergic airway inflammation in mice caused pronounced airway goblet cell metaplasia. […] The two main TMEM16 paralogs expressed in airway epithelial and smooth muscle cells, TMEM16A and TMEM16F, were expressed in HEK293 cells and the whole cell currents upon activation by the Ca^2+ ionophore ionomycin (Iono) were measured. […]
# (§4) Similar to TMEM16A, also overexpressed TMEM16F was inhibited by niclosamide (FIG. 15D). […] TMEM16A was activated by ionomycin and TMEM16A currents were measured as iodide quenching.
# TMEM16A [1] = molecular target: T2, TMEM16A (Homo sapiens, UniProt Q5XXA6); test: ATP-induced current in HT29 cells expressing TMEM16A, patch clamp; design: expressed in transfected cells; details: 1 μM compound applied simultaneously with ATP (wo μM), #p<0.01
# T2 sequence (Q5XXA6 1-986): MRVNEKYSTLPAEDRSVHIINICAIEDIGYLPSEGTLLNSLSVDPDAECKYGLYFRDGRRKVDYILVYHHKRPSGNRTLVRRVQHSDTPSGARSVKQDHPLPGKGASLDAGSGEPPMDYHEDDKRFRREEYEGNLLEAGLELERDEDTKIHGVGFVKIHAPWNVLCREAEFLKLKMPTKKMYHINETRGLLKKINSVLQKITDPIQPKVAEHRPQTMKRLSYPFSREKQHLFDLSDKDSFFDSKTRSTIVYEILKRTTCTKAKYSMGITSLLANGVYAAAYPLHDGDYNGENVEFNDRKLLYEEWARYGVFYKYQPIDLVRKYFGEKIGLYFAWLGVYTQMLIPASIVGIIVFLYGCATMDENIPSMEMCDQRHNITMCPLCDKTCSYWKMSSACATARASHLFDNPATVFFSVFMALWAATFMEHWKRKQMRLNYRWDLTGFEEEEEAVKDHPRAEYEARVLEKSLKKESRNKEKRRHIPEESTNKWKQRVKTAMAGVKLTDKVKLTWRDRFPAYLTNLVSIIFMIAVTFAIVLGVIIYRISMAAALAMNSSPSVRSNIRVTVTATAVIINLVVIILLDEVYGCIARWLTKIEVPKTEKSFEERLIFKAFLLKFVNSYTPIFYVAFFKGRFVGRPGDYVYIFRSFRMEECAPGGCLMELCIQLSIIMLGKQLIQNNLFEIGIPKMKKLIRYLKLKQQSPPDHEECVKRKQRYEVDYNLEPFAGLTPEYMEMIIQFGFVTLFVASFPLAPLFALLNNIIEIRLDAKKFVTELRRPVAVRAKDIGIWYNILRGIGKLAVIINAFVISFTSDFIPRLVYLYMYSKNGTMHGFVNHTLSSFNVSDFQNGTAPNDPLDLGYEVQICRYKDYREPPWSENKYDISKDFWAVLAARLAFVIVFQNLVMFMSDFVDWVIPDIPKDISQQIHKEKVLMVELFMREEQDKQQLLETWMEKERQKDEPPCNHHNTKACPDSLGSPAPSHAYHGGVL
# From the text: FIG. 2: ATP-induced current in HT29 cells expressing TMEM16A in an electrophysiological patch clamp investigation.
# ATP was applied at a concentration of wo μM.
# TMEM16A [2] = molecular target: T2, TMEM16A; test: Whole cell currents in HEK293 cells expressing TMEM16A (patch clamp); design: expressed in transfected cells; host or cells: HEK293 cells; details: overexpressing HEK293 cells; UTP 100 μM
# Description: as §1, §2, §3, §4
smiles,measurement,setting,value
"O=C(Nc1ccc([N+](=O)[O-])cc1Cl)c1cc(Cl)ccc1O [niclosamide, 5-chloro-N-(2-chloro-4-nitrophenyl)-2-hydroxybenzamide]",TMEM16F current (current/voltage relationship),TMEM16F,inhibited; also recorded: inhibition
same,ATP-induced ion current arising from TMEM16A activation,TMEM16A [1],significantly reduced
same,TMEM16A outward currents activated by purinergic stimulation,TMEM16A [2],inhibitory effect; also recorded: Concentration-dependent inhibition

# Reference: patent publication US20210283110A1, “COMPOUND FOR USE IN THE TREATMENT OF A DISEASE CHARACTERIZED BY DYSREGULATED MUCUS PRODUCTION AND/OR SECRETION” (UNIVERSITÄT REGENSBURG, priority 2018, published 2021)
